Test results taken from patent publication US4649204A, “Dialkanolamine derivatives” (McNeilab, Inc., priority 1985, dated 1987).
Where a name gives a salt, the structure may show the parent alone. Read-outs that look alike come from different tables or passages of the source.

Tested on: decrease in exploratory activity and ptosis induced with tetrabenazine in mice
Assay: tetrabenazine (TBZ) antagonism test: antagonism of the decrease in exploratory activity and ptosis induced by tetrabenazine in mice (antidepressant activity)
Type: in vivo
Conditions: test compound 30 minutes prior to 32 mg/kg i.p. tetrabenazine; for ED50: Mus musculus, ip
Procedure: The antidepressant activity was determined using the "classical" tetrabenazine (TBZ) antagonism test. […] J. H. Nodine and J. H. Moyer (Lea and Febiger, Philadelphia) p.
Thirty minutes post tetrabenazine, the mice are tested for the presence of normal exploratory activity and ptosis. […] Three to five dosage levels, 10 mice per dosage level, are used per compound.

[1] = first figure of EA/Pt, read-out: TBZ ED50, EA (exploratory activity)
[2] = second figure of EA/Pt, read-out: TBZ ED50, Pt (ptosis)

| Compound | TBZ ED50, EA (exploratory activity) (i.p., first figure of EA/Pt) | TBZ ED50, Pt (ptosis) (i.p., second figure of EA/Pt) | ED50 [1] | ED50 [2] |
| --- | --- | --- | --- | --- |
| CC(O)CN(CC(C)O)CC(c1ccccc1)c1ccccc1.Cl (stereo not drawn) [III, 1,1'-[(2,2-Diphenylethyl)imino]bis[2-propanol].HCl] | 11 mg/kg | 6 mg/kg | – | – |
| OCCN(CCO)CC(c1ccccc1)c1cccs1 (stereo not drawn) [Example VI, 2,2'-{[2-Phenyl]-2-[(2-thienyl)ethyl]imino}bis{ethanol}.HI] | – | – | ~60 mg/kg | ~60 mg/kg |
| CCC(C(c1ccccc1)c1ccccc1)N(CCO)CCO (stereo not drawn) [Example IV, 2,2'-[(1,1-Diphenyl-2-butyl)imino]bis[ethanol]Fumarate] | – | – | 23 mg/kg | 19 mg/kg |
| CC(CN(CCO)CCO)(c1ccccc1)c1ccccc1 [II, 2,2'-[(2,2-Diphenylpropyl)imino]bis[ethanol]Hydrochloride] | – | – | 28 mg/kg | 35 mg/kg |
| OCCN(CCO)CC(F)(c1ccccc1)c1ccccc1 [Example VIII, 2,2'-[(2-Fluoro-2,2-diphenylethyl)imino]-bis[ethanol]Dihexamate] | – | – | 40 mg/kg | 12 mg/kg |
| CC(C(c1ccccc1)c1ccccc1)N(CCO)CCO (stereo not drawn) [Example V, 2,2'-[(1,1-Diphenyl-2-propyl)imino]bis[ethanol]Fumarate] | – | – | 13 mg/kg | 8 mg/kg |
| OCCN(CCO)CC(c1ccc(Cl)cc1)c1ccc(Cl)cc1 [Example VII, 2,2'-{[2,2-Bis(4-chlorophenyl)ethyl]imino}bis{ethanol}] | – | – | ~60 mg/kg | ~60 mg/kg |
| OCCN(CCO)CC(c1ccccc1)c1ccccc1 [Example I, 2,2'-[(2,2-Diphenylethyl)imino]bis[ethanol]Hydrochloride] | – | – | 15 mg/kg | 1.5 mg/kg |
| O[C@H]1CN(CC(c2ccccc2)c2ccccc2)C[C@@H]1O [IX, 1-(2,2-Diphenylethyl)pyrrolidine-3,4-diol Hemifumarate] | – | – | 35 mg/kg | 6 mg/kg |
